Measured values as given in patent publication US12077503B2, “Substituted cyclic amides and their use as herbicides” (FMC CORPORATION, priority 2015, dated 2024).

Tests used:
Format in all cases: in vivo
[1] = system: sedge, umbrella (small-flower umbrella sedge, Cyperus difformis); assay: Test B flooded paddy test; settings: Flood, 0 to 100 scale where 0 is no effect and 100 is complete control, 13 to 15 d
How it was run: (§1)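 Percent control, visually estimated after 13–15 d in the greenhouse on a 0–100 basis, compares treated pots with untreated ones; compound was put into paddy water 3 cm above the soil when plants had two leaves.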

[2] = system: ducksalad (Heteranthera limosa); assay: Test B flooded paddy test; settings: Flood, 0 to 100 scale where 0 is no effect and 100 is complete control, 13 to 15 d
How it was run: as §1

rice (Oryra sativa) = assay: Test B flooded paddy test; settings: Flood, 0 to 100 scale where 0 is no effect and 100 is complete control, 13 to 15 d
How it was run: as §1

[3] = system: barnyardgrass (Echinochloa crus-galli); assay: Test B flooded paddy test; settings: Flood, 0 to 100 scale where 0 is no effect and 100 is complete control, 13 to 15 d
How it was run: as §1

[4] = system: Galium (catchweed bedstraw, Galium aparine); assay: Test A postemergence; settings: postemergence; for Galium plant response rating: 125 g ai/ha, visual injury rating on 0 to 100 scale (0 no effect, 100 complete control), approx. 10 d; for Plant response rating, Galium: 500 g ai/ha, 0 to 100 scale, 0 no effect, 100 complete control
How it was run: (§2)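 Visual injury scores from 0, no effect, to 100, complete control, were assigned versus untreated controls roughly 10 d after treatment in the greenhouse. Test chemicals, formulated with surfactant in a non-phytotoxic solvent, were applied to planted seeds as a preemergence soil spray or postemergence to one- to two-leaf plants 2 to 10 cm tall, in loam–sand soil.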

Kochia (Kochia scoparia) [5] = assay: Test A postemergence; settings: postemergence; for Kochia plant response rating: 125 g ai/ha, visual injury rating on 0 to 100 scale (0 no effect, 100 complete control), approx. 10 d; for Plant response rating, Kochia: 500 g ai/ha, 0 to 100 scale, 0 no effect, 100 complete control
How it was run: as §2

[6] = system: ragweed (common ragweed, Ambrosia elatior); assay: Test A postemergence; settings: postemergence; for Ragweed plant response rating: 125 g ai/ha, visual injury rating on 0 to 100 scale (0 no effect, 100 complete control), approx. 10 d; for Plant response rating, Ragweed: 500 g ai/ha, 0 to 100 scale, 0 no effect, 100 complete control
How it was run: as §2

[7] = system: giant foxtail (Setaria faberii); assay: Test A postemergence; settings: postemergence; for Foxtail, Giant plant response rating: 125 g ai/ha, visual injury rating on 0 to 100 scale (0 no effect, 100 complete control), approx. 10 d; for Plant response rating, Foxtail, Giant: 500 g ai/ha, 0 to 100 scale, 0 no effect, 100 complete control
How it was run: as §2

[8] = system: ryegrass, Italian (Italian ryegrass, Lolium multiflorum); assay: Test A postemergence; settings: postemergence; for Ryegrass, Italian plant response rating: 125 g ai/ha, visual injury rating on 0 to 100 scale (0 no effect, 100 complete control), approx. 10 d; for Plant response rating, Ryegrass, Italian: 500 g ai/ha, 0 to 100 scale, 0 no effect, 100 complete control
How it was run: as §2

[9] = system: pigweed (Amaranthus retroflexus); assay: Test A postemergence; settings: postemergence; for Pigweed plant response rating: 125 g ai/ha, visual injury rating on 0 to 100 scale (0 no effect, 100 complete control), approx. 10 d; for Plant response rating, Pigweed: 500 g ai/ha, 0 to 100 scale, 0 no effect, 100 complete control
How it was run: as §2

[10] = system: blackgrass (Alopecurus myosuroides); assay: Test A postemergence; settings: postemergence; for Blackgrass plant response rating: 125 g ai/ha, visual injury rating on 0 to 100 scale (0 no effect, 100 complete control), approx. 10 d; for Plant response rating, Blackgrass: 500 g ai/ha, 0 to 100 scale, 0 no effect, 100 complete control
How it was run: as §2

corn (Zea mays) = assay: Test A postemergence; settings: postemergence; for Corn plant response rating: 125 g ai/ha, visual injury rating on 0 to 100 scale (0 no effect, 100 complete control), approx. 10 d; for Plant response rating, Corn: 500 g ai/ha, 0 to 100 scale, 0 no effect, 100 complete control
How it was run: as §2

[11] = system: wheat (Triticum aestivum); assay: Test A postemergence; settings: postemergence; for Wheat plant response rating: 125 g ai/ha, visual injury rating on 0 to 100 scale (0 no effect, 100 complete control), approx. 10 d; for Plant response rating, Wheat: 500 g ai/ha, 0 to 100 scale, 0 no effect, 100 complete control
How it was run: as §2

[12] = system: barnyardgrass (Echinochloa crus-galli); assay: Test A postemergence; settings: postemergence; for Barnyardgrass plant response rating: 125 g ai/ha, visual injury rating on 0 to 100 scale (0 no effect, 100 complete control), approx. 10 d; for Plant response rating, Barnyardgrass: 500 g ai/ha, 0 to 100 scale, 0 no effect, 100 complete control
How it was run: as §2

Kochia (Kochia scoparia) [13] = assay: Test A preemergence; settings: for Plant response rating, Kochia: 125 g ai/ha, preemergence, 0 to 100 scale (0 no effect, 100 complete control); for Kochia plant response rating (0 to 100 scale, 0 is no effect, 100 is complete control): Preemergence, 500 g ai/ha, visual injury approx. 10 d
How it was run: as §2

[14] = system: ragweed (common ragweed, Ambrosia elatior); assay: Test A preemergence; settings: for Plant response rating, Ragweed: 125 g ai/ha, preemergence, 0 to 100 scale (0 no effect, 100 complete control); for Ragweed plant response rating (0 to 100 scale, 0 is no effect, 100 is complete control): Preemergence, 500 g ai/ha, visual injury approx. 10 d
How it was run: as §2

[15] = system: giant foxtail (Setaria faberii); assay: Test A preemergence; settings: for Plant response rating, Foxtail, Giant: 125 g ai/ha, preemergence, 0 to 100 scale (0 no effect, 100 complete control); for Foxtail, Giant plant response rating (0 to 100 scale, 0 is no effect, 100 is complete control): Preemergence, 500 g ai/ha, visual injury approx. 10 d
How it was run: as §2

[16] = system: ryegrass, Italian (Italian ryegrass, Lolium multiflorum); assay: Test A preemergence; settings: for Plant response rating, Ryegrass, Italian: 125 g ai/ha, preemergence, 0 to 100 scale (0 no effect, 100 complete control); for Ryegrass, Italian plant response rating (0 to 100 scale, 0 is no effect, 100 is complete control): Preemergence, 500 g ai/ha, visual injury approx. 10 d
How it was run: as §2

[17] = system: pigweed (Amaranthus retroflexus); assay: Test A preemergence; settings: for Plant response rating, Pigweed: 125 g ai/ha, preemergence, 0 to 100 scale (0 no effect, 100 complete control); for Pigweed plant response rating (0 to 100 scale, 0 is no effect, 100 is complete control): Preemergence, 500 g ai/ha, visual injury approx. 10 d
[18] = system: barnyardgrass (Echinochloa crus-galli); assay: Test A preemergence; settings: for Plant response rating, Barnyardgrass: 125 g ai/ha, preemergence, 0 to 100 scale (0 no effect, 100 complete control); for Barnyardgrass plant response rating (0 to 100 scale, 0 is no effect, 100 is complete control): Preemergence, 500 g ai/ha, visual injury approx. 10 d
How it was run: as §2

Structure (SMILES) | Galium plant response rating [4] | Plant response rating, Galium [4] | Kochia plant response rating (Kochia (Kochia scoparia) [5]) | Plant response rating, Kochia (Kochia (Kochia scoparia) [5]) | Ragweed plant response rating [6] | Plant response rating, Ragweed [6] | Foxtail, Giant plant response rating [7] | Plant response rating, Foxtail, Giant [7] | Ryegrass, Italian plant response rating [8] | Plant response rating, Ryegrass, Italian [8] | Pigweed plant response rating [9] | Plant response rating, Pigweed [9] | Blackgrass plant response rating [10] | Plant response rating, Blackgrass [10] | Corn plant response rating (corn (Zea mays)) | Plant response rating, Corn (corn (Zea mays)) | Wheat plant response rating [11] | Plant response rating, Wheat [11] | Barnyardgrass plant response rating [12] | Plant response rating, Barnyardgrass [12] | other results
Cc1ccc(F)c(NC(=O)C2C(=O)NCC2c2cccc(OC(F)F)c2)c1 (stereo not drawn) [Compound 423] | 0 | 0 | 0 | 0 | 0 | 0 | 0 | 0 | 0 | 0 | 0 | 0 | 0 | 0 | 0 | 0 | 0 | 0 | 0 | 0 | Plant response rating, Sedge, Umbrella ([1]; 500 g ai/ha): 0; Plant response rating, Ducksalad ([2]; 500 g ai/ha): 20; Plant response rating, Rice (rice (Oryra sativa); 500 g ai/ha): 0; Plant response rating, Barnyardgrass ([3]; 500 g ai/ha): 0; Plant response rating, Kochia (Kochia (Kochia scoparia) [13]): 0; Kochia plant response rating (0 to 100 scale, 0 is no effect, 100 is complete control) (Kochia (Kochia scoparia) [13]): 0; Plant response rating, Ragweed [14]: 0; Ragweed plant response rating (0 to 100 scale, 0 is no effect, 100 is complete control) [14]: 0; Plant response rating, Foxtail, Giant [15]: 0; Foxtail, Giant plant response rating (0 to 100 scale, 0 is no effect, 100 is complete control) [15]: 0; Plant response rating, Ryegrass, Italian [16]: 0; Ryegrass, Italian plant response rating (0 to 100 scale, 0 is no effect, 100 is complete control) [16]: 0; Plant response rating, Pigweed [17]: 0; Pigweed plant response rating (0 to 100 scale, 0 is no effect, 100 is complete control) [17]: 0; Plant response rating, Barnyardgrass [18]: 0; Barnyardgrass plant response rating (0 to 100 scale, 0 is no effect, 100 is complete control) [18]: 0
Cc1cc(NC(=O)C2C(=O)NCC2c2cccc(OC(F)F)c2)ccc1F (stereo not drawn) [Compound 424] | 0 | 0 | 0 | 0 | 0 | 0 | 40 | 70 | 0 | 0 | 0 | 0 | 0 | 0 | 0 | 0 | 0 | 0 | 50 | 70 | Plant response rating, Sedge, Umbrella ([1]; 500 g ai/ha): 0; Plant response rating, Ducksalad ([2]; 500 g ai/ha): 30; Plant response rating, Rice (rice (Oryra sativa); 500 g ai/ha): 0; Plant response rating, Barnyardgrass ([3]; 500 g ai/ha): 0; Plant response rating, Kochia (Kochia (Kochia scoparia) [13]): 0; Kochia plant response rating (0 to 100 scale, 0 is no effect, 100 is complete control) (Kochia (Kochia scoparia) [13]): 0; Plant response rating, Ragweed [14]: 0; Ragweed plant response rating (0 to 100 scale, 0 is no effect, 100 is complete control) [14]: 0; Plant response rating, Foxtail, Giant [15]: 70; Foxtail, Giant plant response rating (0 to 100 scale, 0 is no effect, 100 is complete control) [15]: 90; Plant response rating, Ryegrass, Italian [16]: 0; Ryegrass, Italian plant response rating (0 to 100 scale, 0 is no effect, 100 is complete control) [16]: 0; Plant response rating, Pigweed [17]: 0; Pigweed plant response rating (0 to 100 scale, 0 is no effect, 100 is complete control) [17]: 0; Plant response rating, Barnyardgrass [18]: 30; Barnyardgrass plant response rating (0 to 100 scale, 0 is no effect, 100 is complete control) [18]: 90
COc1c(F)ccc(NC(=O)C2C(=O)N(C)CC2c2cccc(OC(F)(F)C(F)F)c2)c1F (stereo not drawn) [Compound 430] | 50 | 60 | 20 | 50 | 0 | 30 | 80 | 80 | 30 | 50 | 30 | 50 | 20 | 70 | 50 | 70 | 20 | 50 | 80 | 90 | Plant response rating, Sedge, Umbrella ([1]; 250 g ai/ha): 0; Plant response rating, Ducksalad ([2]; 250 g ai/ha): 100; Plant response rating, Rice (rice (Oryra sativa); 250 g ai/ha): 20; Plant response rating, Barnyardgrass ([3]; 250 g ai/ha): 65; Plant response rating, Kochia (Kochia (Kochia scoparia) [13]): 30; Kochia plant response rating (0 to 100 scale, 0 is no effect, 100 is complete control) (Kochia (Kochia scoparia) [13]): 70; Plant response rating, Ragweed [14]: 30; Ragweed plant response rating (0 to 100 scale, 0 is no effect, 100 is complete control) [14]: 50; Plant response rating, Foxtail, Giant [15]: 90; Foxtail, Giant plant response rating (0 to 100 scale, 0 is no effect, 100 is complete control) [15]: 90; Plant response rating, Ryegrass, Italian [16]: 40; Ryegrass, Italian plant response rating (0 to 100 scale, 0 is no effect, 100 is complete control) [16]: 50; Plant response rating, Pigweed [17]: 0; Pigweed plant response rating (0 to 100 scale, 0 is no effect, 100 is complete control) [17]: 50; Plant response rating, Barnyardgrass [18]: 80; Barnyardgrass plant response rating (0 to 100 scale, 0 is no effect, 100 is complete control) [18]: 90
